Assay results as given in patent US10647699B2, “Substituted 2-oxyimidazolylcarboxamides as pesticides” (Bayer CropScience Aktiengesellschaft, priority 2016, dated 2020).
Where two headings read alike, the source gives them in different places.

Assays:
[1] = log P by HPLC on reversed-phase columns (OECD Guideline 117), neutral range; format: physicochemical; details: for chromatographic logP: reversed-phase (C18) HPLC column
Myzus persicae [2] = experiment: Myzus persicae spray test (MYZUPE), Chinese cabbage leaf discs; format: in vivo; details: for Emax at 100 g/ha / pest or weed control at 500 g/ha: Myzus persicae, foliar; for Emax at 100 g/ha: read-out: % efficacy; for pest or weed control at 500 g/ha: read-out: efficacy
Method: Myzus persicae—Spray Test
(§1) To produce a suitable preparation of active compound, 1 part by weight of active compound is dissolved using the specified parts by weight of solvent and made up with water containing an emulsifier concentration of 1000 ppm until the desired concentration is attained. To produce further test concentrations, the formulation is diluted with emulsifier-containing water.
Discs of Chinese cabbage leaves (Brassica pekinensis) infested by all stages of the green peach aphid (Myzus persicae) are sprayed with an active compound formulation of the desired concentration.
After 5 or 6 days, the efficacy in % is determined. 100% means that all the aphids have been killed; 0% means that no aphids have been killed.
Myzus persicae—Spray Test (MYZUPE)
Discs of Chinese cabbage leaves (Brassica pekinensis) infested by all stages of the green peach aphid (Myzus persicae) are sprayed with an active compound preparation of the desired concentration.
After the desired period of time, the efficacy in % is determined. 100% means that all the aphids have been killed; 0% means that no aphids have been killed.

Aphis gossypii = Aphis gossypii spray test on cotton plants; format: in vivo; details: for pest or weed control at 20 ppm: Aphis gossypii, 144 h, read-out: efficacy (kill)
Method: Aphis gossypii—Spray Test
Solvent: 14 parts by weight of dimethylformamide
Emulsifier: alkylaryl polyglycol ether
as §1, with “water. If the addition of ammonium salts or/and penetrants is required, these are each added in a concentration of 1000 ppm to the formulation solution.” for “water.”
Cotton plants (Gossypium hirsutum) which are heavily infested by the cotton aphid (Aphis gossypii) are sprayed with an active compound formulation of the desired concentration.
After 6 days, the kill in % is determined. 100% means that all the aphids have been killed; 0% means that no aphids have been killed.

Myzus persicae [3] = experiment: Myzus persicae oral test (MYZUPE O); format: in vivo; details: for Emax at 4 ppm / pest or weed control at 20 ppm / Emax at 0.8 ppm: Myzus persicae, po, 120 h; for Emax at 4 ppm / Emax at 0.8 ppm: read-out: % efficacy; for pest or weed control at 20 ppm: read-out: efficacy
Method: Solvent: 100 parts by weight of acetone
To produce a suitable preparation of active compound, 1 part by weight of active compound is dissolved using the specified parts by weight of solvent and made up with water until the desired concentration is attained.
50 μl of the active compound preparation are transferred into microtitre plates and made up to a final volume of 200 μl with 150 μl of IPL41 insect medium (33%+15% sugar). Subsequently, the plates are sealed with parafilm, which a mixed population of green peach aphids (Myzus persicae) within a second microtitre plate is able to puncture and imbibe the solution through it.
After 5 days, the efficacy in % is determined. 100% means that all the aphids have been killed; 0% means that no aphids have been killed.
Myzus persicae—Oral Test (MYZUPE O)
After 5 or 6 days (dat), the efficacy in % is determined. 100% means that all the aphids have been killed; 0% means that no aphids have been killed.

[4] = after 5 days, application rate 500 g/ha
[5] = after 6 days, application rate 20 ppm, cotton plants
[6] = after 5 days, application rate 20 ppm
[7] = after 6 days, application rate 500 g/ha
[8] = HPLC, neutral range pH 7.8, read-out: LogP-neutral
[9] = 120 h, after 5 days, application rate 500 g/ha
[10] = 144 h, MYZUPE, 100 g of ai/ha, 6 dat
[11] = 120 h, MYZUPE, 100 g of ai/ha, 5 dat

LogP-neutral ([1]; pH 7.8)	Compound	efficacy (Myzus persicae [2]; [4])	efficacy (kill) (Aphis gossypii; [5])	efficacy (Myzus persicae [3]; [6])	further results
–	CN(C(=O)c1cnc(Oc2cccc(Cl)c2)n1C)c1cccnc1 [Example II-2]	–	–	–	chromatographic logP ([1]; pH 7.8, HPLC-MS, neutral, read-out: log P[n]): 2.1; Emax at 100 g/ha (Myzus persicae [2]; 144 h): 100%; pest or weed control at 500 g/ha (Myzus persicae [2]; 144 h): 100%; pest or weed control at 20 ppm (Aphis gossypii): 100%; Emax at 4 ppm (Myzus persicae [3]): 100%; pest or weed control at 20 ppm (Myzus persicae [3]): 100%
1.45	CSCCOc1ncc(C(=O)N(C)c2cccnc2)n1C [Example II-6]	–	99%	100%	efficacy (Myzus persicae [2]; [7]): 90%
–	CN(C(=O)c1cnc(Oc2ccc(Cl)cc2)n1C)c1cccnc1 [Example II-9]	–	100%	100%	LogP-neutral ([1]; HPLC, neutral range pH 7.8): 2.09; efficacy (Myzus persicae [2]; [7]): 90%
–	COc1ncc(C(=O)N(C)c2cccnc2)n1C [Example II-12]	–	–	–	chromatographic logP [1, 8]: 0.9; pest or weed control at 500 g/ha (Myzus persicae [2]; [9]): 100%; Emax at 100 g/ha (Myzus persicae [2]; [10]): 90%; pest or weed control at 20 ppm (Aphis gossypii; [5]): 100%; Emax at 0.8 ppm (Myzus persicae [3]; MYZUPE O, 0.8 ppm, 5 dat): 100%; Emax at 4 ppm (Myzus persicae [3]; MYZUPE O, 4 ppm, 5 dat): 100%; pest or weed control at 20 ppm (Myzus persicae [3]; [6]): 100%
–	CN(C(=O)c1cnc(Oc2ccc(Cl)nc2)n1C)c1cccnc1 [Example II-15]	–	–	–	chromatographic logP [1, 8]: 1.53; Emax at 100 g/ha (Myzus persicae [2]; [10]): 100%; pest or weed control at 500 g/ha (Myzus persicae [2]; 144 h, after 6 days, application rate 500 g/ha): 100%; pest or weed control at 20 ppm (Aphis gossypii; [5]): 100%; Emax at 0.8 ppm (Myzus persicae [3]; MYZUPE O, 0.8 ppm, 5 dat): 100%; pest or weed control at 20 ppm (Myzus persicae [3]; [6]): 100%
1.86	CN(C(=O)c1cnc(Oc2ccc(F)cc2F)n1C)c1cccnc1 [Example II-17]	–	100%	100%	efficacy (Myzus persicae [2]; [7]): 100%
–	CN(C(=O)c1cnc(Oc2ccccc2)n1C)c1cccnc1 [Example II-24]	100%	98%	100%	LogP-neutral ([1]; HPLC, neutral range pH 7.8): 1.68
2.01	CN(C(=O)c1cnc(Oc2cc(F)cc(F)c2)n1C)c1cccnc1 [Example II-25]	90%	90%	100%	–
2.09	CSc1cccc(Oc2ncc(C(=O)N(C)c3cccnc3)n2C)c1 [Example II-26]	100%	100%	100%	–
2.52	CN(C(=O)c1cnc(Oc2cccc(OC(F)(F)F)c2)n1C)c1cccnc1 [Example II-27]	100%	98%	100%	–
–	CN(C(=O)c1cnc(Oc2cccc(C(F)(F)F)c2)n1C)c1cccnc1 [Example II-29]	–	–	–	chromatographic logP [1, 8]: 2.37; Emax at 100 g/ha (Myzus persicae [2]; [11]): 90%; pest or weed control at 500 g/ha (Myzus persicae [2]; [9]): 100%; pest or weed control at 20 ppm (Aphis gossypii; [5]): 100%; Emax at 0.8 ppm (Myzus persicae [3]; MYZUPE O, 0.8 ppm, 5 dat): 100%; Emax at 4 ppm (Myzus persicae [3]; MYZUPE O, 4 ppm, 5 dat): 100%; pest or weed control at 20 ppm (Myzus persicae [3]; [6]): 100%
1.97	CN(C(=O)c1cnc(OCCSCC(F)(F)F)n1C)c1cccnc1 [Example II-30]	100%	100%	100%	% efficacy (Myzus persicae [2]; MYZUPE, 100 g of ai/ha, 5 dat): 90%; % efficacy (Myzus persicae [3]; MYZUPE O, 0.8 ppm, 5 dat): 100%; % efficacy (Myzus persicae [3]; MYZUPE O, 4 ppm, 5 dat): 100%
–	CN(C(=O)c1cnc(OC2CCSCC2)n1C)c1cccnc1 [Example II-31]	–	–	–	chromatographic logP [1, 8]: 1.63; Emax at 100 g/ha (Myzus persicae [2]; [11]): 90%; pest or weed control at 500 g/ha (Myzus persicae [2]; [9]): 100%; pest or weed control at 20 ppm (Aphis gossypii; [5]): 98%; Emax at 0.8 ppm (Myzus persicae [3]; MYZUPE O, 0.8 ppm, 5 dat): 70%; Emax at 4 ppm (Myzus persicae [3]; MYZUPE O, 4 ppm, 5 dat): 100%; pest or weed control at 20 ppm (Myzus persicae [3]; [6]): 100%
1.18	CN(C(=O)c1cnc(OC2CCOCC2)n1C)c1cccnc1 [Example II-32]	90%	100%	100%	–
–	CN(C(=O)c1cnc(OCCCF)n1C)c1cccnc1 [Example II-33]	90%	100%	100%	LogP-neutral ([1]; HPLC, neutral range pH 7.8): 1.26
2.51	CN(C(=O)c1cnc(OCCC(F)(C(F)(F)F)C(F)(F)F)n1C)c1cccnc1 [Example II-34]	100%	100%	100%	–
–	CN(C(=O)c1cnc(OC2CCOC2)n1C)c1cccnc1 (stereo not shown) [Example II-35]	90%	100%	100%	LogP-neutral ([1]; HPLC, neutral range pH 7.8): 1
–	CCN(C(=O)c1cnc(Oc2ccc(Cl)nc2)n1C)c1cccnc1 [Example II-36]	90%	100%	100%	LogP-neutral ([1]; HPLC, neutral range pH 7.8): 1.79
2.55	CN(C(=O)c1cnc(Oc2cc(F)cc(C(F)(F)F)c2)n1C)c1cccnc1 [Example II-86]	100%	–	100%	–
2.26	COc1cc(Cl)cc(Oc2ncc(C(=O)N(C)c3cccnc3)n2C)c1 [Example II-88]	90%	–	100%	–
–	Cn1c(C(=O)N(c2cccnc2)C2CC2)cnc1Oc1ccc(Cl)nc1 [Example II-90]	–	–	100%	LogP-neutral ([1]; HPLC, neutral range pH 7.8): 1.8; efficacy (Myzus persicae [2]; after 5 days, application rate 100 g/ha): 90%
–	Cn1c(C(=O)N(c2cccnc2)C2CC2)cnc1Oc1cncc(C(F)(F)F)c1 [Example II-91]	–	–	–	chromatographic logP [1, 8]: 2.1; Emax at 100 g/ha (Myzus persicae [2]; [11]): 90%; pest or weed control at 500 g/ha (Myzus persicae [2]; [9]): 90%; Emax at 0.8 ppm (Myzus persicae [3]; MYZUPE O, 0.8 ppm, 5 dat): 70%; Emax at 4 ppm (Myzus persicae [3]; MYZUPE O, 4 ppm, 5 dat): 90%; pest or weed control at 20 ppm (Myzus persicae [3]; [6]): 100%
–	Cn1c(C(=O)N(c2cccnc2)C2CC2)cnc1Oc1cccc(Cl)c1 [Example II-93]	90%	–	100%	LogP-neutral ([1]; HPLC, neutral range pH 7.8): 2.41
–	CCN(C(=O)c1cnc(Oc2ccc(F)nc2)n1C)c1cccnc1 [Example II-95]	–	–	–	chromatographic logP [1, 8]: 1.55; Emax at 100 g/ha (Myzus persicae [2]; 120 h): 100%; pest or weed control at 500 g/ha (Myzus persicae [2]; 120 h): 100%; Emax at 0.8 ppm (Myzus persicae [3]): 100%; Emax at 4 ppm (Myzus persicae [3]): 90%; pest or weed control at 20 ppm (Myzus persicae [3]): 100%

Compound	LogP-neutral ([1]; pH 7.8)	efficacy (Myzus persicae [2]; [4])	efficacy (kill) (Aphis gossypii; [5])	efficacy (Myzus persicae [3]; [6])	further results
CC(C)Oc1ncc(C(=S)N(C)c2cccnc2)n1C [Example II-3]	1.99	90%	100%	100%	–
CC(C)Oc1ncc(C(=O)N(C)c2ccc[n+]([O-])c2)n1C [Example II-4]	1.03	90%	100%	100%	–
CCCOc1ncc(C(=O)N(C)c2cccnc2)n1C [Example II-5]	1.52	–	100%	90%	efficacy (Myzus persicae [2]; [7]): 90%
COCCCOc1ncc(C(=O)N(C)c2cccnc2)n1C [Example II-7]	1.27	–	100%	100%	efficacy (Myzus persicae [2]; [7]): 100%
CN(C(=O)c1cnc(OCc2cccnc2)n1C)c1cccnc1 [Example II-8]	1.16	–	99%	100%	efficacy (Myzus persicae [2]; [7]): 90%
CCOc1ncc(C(=O)N(C)c2cccnc2)n1C [Example II-10]	1.19	–	100%	100%	efficacy (Myzus persicae [2]; [7]): 100%
Cc1ccc(Oc2ncc(C(=O)N(C)c3cccnc3)n2C)cc1Cl [Example II-85]	2.45	100%	–	90%	–
CCN(C(=O)c1cnc(Oc2cncc(C(F)(F)F)c2)n1C)c1cccnc1 [Example II-92]	2.04	100%	–	100%	–
